In patent publication US20250098692A1, “GERMINATION/SPROUTING AND FRUIT RIPENING REGULATORS” (The United States of America, as Represented by the …, priority 2021, published 2025):

Tests used:
strawberry fruit [1] = test: Strawberry fruit ripening after injection of fruits; type: in vivo, Fragaria x ananassa CV. Albion; conditions: for strawberry appearance (FIG. 4A): 8 DAT; for strawberry appearance (FIG. 4A) / strawberry appearance (FIG. 4B) / strawberry appearance (FIG. 4C) / strawberry appearance (FIG. 4D) / strawberry appearance (FIG. 4E) / fruit started to turn red: 10 µM PAD or 200 μM ABA; for strawberry appearance (FIG. 4B): 9 DAT; for strawberry appearance (FIG. 4C): 10 DAT; for strawberry appearance (FIG. 4D): 11 DAT; for strawberry appearance (FIG. 4E): 12 DAT
Method: Strawberry plants (Fragaria x ananassa CV. Albion) were grown and maintained as disclosed above. Fourteen days after pollination fruits were injected with 10 µM PAD in 0.1% TRITON X-100 surfactant; 200 μM ABA in 0.1% TRITON X-100 surfactant; or buffer alone (0.1% Triton X-100 surfactant).
FIG. 4A to FIG. 4F depict images of strawberries treated with either 10 µM PAD in 0.1% TRITON X-100 surfactant; 200 μM ABA in 0.1% TRITON X-100 surfactant; buffer alone ([…] surfactant; mock-treated); or not injected (control). […] Control fruit started to turn red 11 DAT, and reached full red at 12 DAT. Mock-treated fruit started to turn red at 10 DAT, and reached full red at 12 DAT. ABA-treated fruit started to turn red 9 DAT, and reached full red 11 DAT. In contrast, PAD-treated fruit only started turning red 12 DAT.

strawberry fruit [2] = test: Strawberry fruit ripening after dipping fruits on the plant; type: in vivo, Fragaria x ananassa CV. Albion; conditions: for strawberry appearance (FIG. 2B): 8 DAT; for strawberry appearance (FIG. 2B) / strawberry appearance (FIG. 2C) / strawberry appearance (FIG. 2D) / strawberry appearance (FIG. 2E) / strawberry appearance (FIG. 2F) / fruit started to turn red: 10 μM PAD or 1 mM ABA; for strawberry appearance (FIG. 2C): 9 DAT; for strawberry appearance (FIG. 2D): 10 DAT; for strawberry appearance (FIG. 2E): 11 DAT; for strawberry appearance (FIG. 2F): 12 DAT; for effect on strawberry fruit ripening compared to mock-treated fruit: dipped 20 seconds eight days after pollination, 10 μM PAD or 1 mM ABA in 0.1% TRITON X-100
Method: Strawberry plants (Fragaria x ananassa CV. Albion) were grown in a greenhouse at 28° C. and 14-hour light/10-hour dark conditions. Eight days after pollination, fruits were dipped for 20 seconds in 10 µM PAD in 0.1% TRITON X-100 surfactant; 1 mM ABA in 0.1% TRITON X-100 surfactant; or buffer alone (0.1% Triton X-100). Fruits were allowed to continue growing on the plants. FIG. 1 depicts images of strawberry fruit development under standard conditions.
Of the twelve chemicals identified in Example 1 as promoting seed germination, N-[3-chloro-4-(4-propionyl-1-piperazinyl)phenyl]-2-phenylacetamide was named “PAD,” and used for further study. […] Mock-treated fruit started to turn red at 10 DAT, and reached full red at 12 DAT. ABA-treated fruit started to turn red 9 DAT, and reached full red 11 DAT. In contrast, PAD-treated fruit only started turning red 12 DAT.

Cherry tomato fruits = test: Cherry tomato ripening after injection at mature green stage; type: in vivo; conditions: for cherry tomato appearance (FIG. 3B, FIG. 3D): 6 DAT, injected 10 µM PAD or 200 μM ABA (figure legend); for ripening stage of cherry tomato fruits: six days after treatment, injected 50 μM PAD or 200 μM ABA
Method: Cherry tomato fruits at mature green stage were purchased from Butler's Orchard (Germantown, Maryland, USA). […] FIG. 3A and FIG. 3B show images of cherry tomatoes injected with 50 µM PAD. FIG. 3C and FIG. 3D show images of cherry tomatoes injected with 200 μM ABA. FIG. 3E and FIG. 3F show images of cherry tomatoes injected with buffer alone. FIG. 3G and FIG. 3H show images of untreated tomatoes. FIG. 3A; FIG. 3C; FIG. 3E; and FIG. 3G show images taken the day of treatment. FIG. 3B; FIG. 3D; […]; and FIG. 3H show images taken 6 DAT.

strawberry fruit [3] = test: Strawberry fruit ripening after dipping fruits on the plant; type: in vivo, Fragaria x ananassa CV. Albion; conditions: 10 μM PAD applied on day 9 after pollination
[4] = tested on: Strawberry seeds (Fragaria x ananassa CV. Albion); test: Chemical library screening for promotion of strawberry seed germination; type: in vivo; conditions: about 5 μM chemical in 0.1% TRITON X-100, 96 well plates, 25 C
Description: Chemical libraries of small compounds were screened for compounds capable of promoting seed germination, delaying the fruit ripening process, and/or retarding fruit pigmentation. A chemical library containing 10,000 small compounds (˜300 Dalton) was purchased from ChemBridge Co (San Diego, California, USA). Strawberry seeds (Fragaria x ananassa CV. Albion) were purchased from Johnny's Seeds (Fairfield, Maine, USA). Five to six seeds were sterilized with 70% ethanol and added to each well of 96 well ELISA plates containing about 5 μM chemical in 0.1% TRITON X-100 surfactant (polyethylene glycol tert-octylphenyl ether). One mM abscisic acid (ABA), a hormone that inhibits seed germination, and gibberellic acid (GA3), a hormone that promotes seed germination, were used as controls. Each experiment was conducted in triplicate. Plates were kept in a growth chamber at 25 C under dark, and a 14 hour light/10 hour dark cycle was added after seed germination was observed.

strawberry fruit [5] = test: PAD analogs: ability to delay strawberry fruit ripening; type: in vivo; conditions: for effect on strawberry fruit ripening: 50 μM in 0.1% TRITON-X 100
Method: Chemicals with similarity to PAD were tested for their ability to delay fruit ripening.
To the inventors' knowledge, no chemical closely-related to PAD is currently commercially available. A few analogs with 88-99% similarity to PAD were found in the ChemBridge database used in Example 1.

| Structure (SMILES) | strawberry appearance (FIG. 4A) (strawberry fruit [1]; injected) | strawberry appearance (FIG. 4B) (strawberry fruit [1]; injected) | strawberry appearance (FIG. 4C) (strawberry fruit [1]; injected) | strawberry appearance (FIG. 4D) (strawberry fruit [1]; injected) | strawberry appearance (FIG. 4E) (strawberry fruit [1]; injected) | fruit started to turn red (strawberry fruit [1]; injected, days after treatment) | strawberry appearance (FIG. 2B) (strawberry fruit [2]; dipped) | strawberry appearance (FIG. 2C) (strawberry fruit [2]; dipped) | strawberry appearance (FIG. 2D) (strawberry fruit [2]; dipped) | strawberry appearance (FIG. 2E) (strawberry fruit [2]; dipped) | strawberry appearance (FIG. 2F) (strawberry fruit [2]; dipped) | effect on strawberry fruit ripening compared to mock-treated fruit (strawberry fruit [2]) | fruit started to turn red (strawberry fruit [2]; dipped, days after treatment) | cherry tomato appearance (FIG. 3B, FIG. 3D) (Cherry tomato fruits) | ripening stage of cherry tomato fruits (Cherry tomato fruits) | effect on strawberry fruit ripening (strawberry fruit [5]) | other results |
| --- | --- | --- | --- | --- | --- | --- | --- | --- | --- | --- | --- | --- | --- | --- | --- | --- | --- |
| CCC(=O)N1CCN(c2ccc(NC(=O)Cc3ccccc3)cc2Cl)CC1 [PAD, N-[3-chloro-4-(4-propionyl-1-piperazinyl)phenyl]-2-phenylacetamide] | with pink spots | orange | mostly red | mostly red | red | 12 DAT | white with a greenish tint | whit with a greenish tint | white with a greenish tint | white | red with some yellow | delayed fruit ripening | 12 DAT | with a yellow and/or yellow/red tint | still at a green stage |  | effect on strawberry fruit ripening compared to not-treated, mock-treated and ABA treated fruit (strawberry fruit [1]; injected fourteen days after pollination, 10 µM PAD): delayed fruit ripening; fresh weight of strawberry fruit larger than mock-treated (strawberry fruit [2]; PAD-treated vs mock-treated): about 10%; sugar content versus mock-treated controls (strawberry fruit [2]; PAD-treated vs mock-treated): no difference in the sugar content; effect on cherry tomato ripening compared to mock-treated or untreated (Cherry tomato fruits; injected 50 μM PAD): delay in cherry tomato ripening; delay in cherry tomato fruit ripening (Cherry tomato fruits; mature green stage, 50 μM PAD): about a seven-day delay; delay of strawberry fruit ripening compared with mock-treated (strawberry fruit [3]): about 2 days; promoting seed germination [4]: promoted seed germination |
| CC(C)C(=O)N1CCN(c2ccc(NC(=O)Cc3ccc(Cl)cc3)cc2)CC1 [2-(4-chlorophenyl)-N-[4-(4-isobutyryl-1-piperazinyl)phenyl]acetamide] |  |  |  |  |  |  |  |  |  |  |  |  |  |  |  | no obvious effect |  |
| CC1=CC(=O)CC(C)(C)[C@@]1(O)/C=C/C(C)=C\C(=O)O [ABA, abscisic acid, reference compound] | with pink spots | mostly red | mostly red | mostly red | red | 9 DAT | white | with pink spots | mostly red | red | red | stimulated strawberry fruit ripening | 9 DAT | red | fully ripen (red stage) |  | fruit reached full red (strawberry fruit [1]; injected, 200 μM ABA, days after treatment): 11 DAT; fruit reached full red (strawberry fruit [2]; dipped, 1 mM ABA, days after treatment): 11 DAT |
| CC(C)C(=O)N1CCN(c2ccc(NC(=O)C(c3ccccc3)c3ccccc3)cc2Cl)CC1 [N-(3-chloro-4-(4-isobutyryl-1-piperazinyl)phenyl]-2,2-diphenylacetamide] |  |  |  |  |  |  |  |  |  |  |  |  |  |  |  | no obvious effect |  |
| CC(C)(C)C(=O)N1CCN(c2ccc(NC(=O)Cc3ccccc3)cc2Cl)CC1 [N-(3-chloro-4-[4-(2,2-dimethylpropanoyl)-1-piperazinyl]phenyl)-2-phenylacetamide] |  |  |  |  |  |  |  |  |  |  |  |  |  |  |  | delayed strawberry fruit ripening | effectiveness in delaying strawberry fruit ripening relative to PAD (strawberry fruit [5]; 50 μM in 0.1% TRITON-X 100, same timing as PAD): much less effectively than PAD |
